Laboratory results taken from patent US20240166765A1, “INFLAMMATORY DISEASE TREATMENT USING ANTI-TISSUE FACTOR ANTIBODIES” (Iconic Therapeutics LLC, priority 2020, published 2024).

Key:
[1] = target: T1, human TF (TF-positive MDA-MB-231 cells) (Homo sapiens, UniProt P13726); assay: Antibody competition assay with 39A on MDA-MB-231 cells; format: binding; conditions: 20 nM 39A-Alexa488
T1 construct: Human TF-positive cancer cell lines A431 and MDA-MB-231; host or cells: MDA-MB-231
Protocol: (§1) Alexa Fluor antibodies were generated using Alexa Fluor 488 5-sulfo-[…] esters (ThermoFisher Scientific) following manufacturer's protocol. Excess Alexa Fluor dye was removed from the antibody dye conjugate preparations by gel filtration (ThermoFisher Scientific).
(§2) After another 1 hr incubation on ice, cells were washed, stained with a viability dye, and analyzed by flow cytometry. The Alexa488 fluorescence data from viable cells was summarized using median fluorescence intensity.

[2] = system: thrombin generation (relipidated TF in normal pooled plasma); assay: Thrombin generation assay (TGA) with 10 min antibody pre-incubation; format: biochemical, human; conditions: Ab conc. 10 nM
Protocol: (§3) The TGA assay was performed using the calibrated-automated-thrombogram (CAT) instrument manufactured and distributed by STAGO. The test method design was equivalent to a standard CAT assay measurement, except that the plasma source was NPP in citrate/CTI. […] Relipidated TF was added to a 96-well assay plate, followed by addition of the antibody/NPP mixture. After a 10-min incubation or directly after combining the relipidated TF with antibody/NPP, thrombin generation was initiated by the addition of calcium and the thrombin substrate. The STAGO software was used to report the following parameters: Peak IIa (highest thrombin concentration generated [nM]); Lag Time (time to IIa generation [min]); ETP (endogenous thrombin potential, area under the curve [nM×min]); and ttPeak (time to Peak IIa [min]).
as §3, with “was normal pooled plasma (NPP)” for “was NPP”, “in citrate supplemented with corn trypsin inhibitor (citrate/CTI).” for “in citrate/CTI.”
(§4) TGA assay was performed using the calibrated-automated-thrombogram (CAT) instrument manufactured and distributed by STAGO (Diagnostica Stago SAS, Asnieres sur Seine, France). […] The anti-TF antibodies were titrated at 0, 10, 50 and 100 nM and mixed with NPP in citrate/CTI. Relipidated TF was added to a 96-well assay plate, followed by addition of the antibody/NPP mixture. After a 10-min incubation or directly after combining the relipidated TF with antibody/NPP, thrombin generation was initiated by the addition of calcium and the thrombin substrate. The STAGO software was used to report the following parameters: Peak IIa (highest thrombin concentration generated on the thrombin generation curve [nM]); Lag Time (time from assay start to the moment 10 nM of thrombin is formed [min]); ETP (endogenous thrombin potential, area under the curve [nM×min]); and ttPeak (time from assay start to Peak IIa [min]). […] As used herein, the term “thrombin generation assay” (TGA) refers to the TGA used in this example.

[3] = system: thrombin generation (relipidated TF in normal pooled plasma); assay: Thrombin generation assay (TGA) without antibody pre-incubation; format: biochemical, human; conditions: Ab conc. 10 nM, Table 44
Protocol: as §3
as §3, with “was normal pooled plasma (NPP)” for “was NPP”, “in citrate supplemented with corn trypsin inhibitor (citrate/CTI).” for “in citrate/CTI.”
as §4

[4] = target: T1, human TF (TF-positive MDA-MB-231 cells); assay: Antibody competition assay with 25A3 on MDA-MB-231 cells; format: binding; conditions: 20 nM 25A3-Alexa488
Protocol: as §1, §2

[5] = target: T2, TF:FVIIa (Homo sapiens, UniProt P13726); assay: FXa conversion assay on MDA-MB-231 cells; format: cell-based; conditions: concentrations of 25, 50, and 100 nM; Example 26
T2 construct: host or cells: MDA-MB-231
Protocol: (§5) To evaluate the ability of TF:FVIIa to convert FX into FXa in the presence of human antibodies against TF, 5×10^4 MDA-MB-231 cells (ATCC, Manassas, VA, USA) were plated into tissue culture-treated black 96-well plates (Greiner Bio-One, Monroe, NC, USA). […] Upon reconstitution of the binary TF:FVIIa complex with a final concentration of 20 nM of FVIIa, cells were incubated for 5 min at 37° C.
as §5, with “Briefly,” for “To evaluate the ability of TF:FVIIa to convert FX into FXa in the presence of human antibodies against TF,”, “USA) and cultured overnight.” for “USA).”

[6] = system: TF-positive A431 cells; assay: Cytotoxicity assay of ADCs, A431 cells; format: cell-based, human; conditions: Primary ADC
Protocol: To evaluate cytotoxicity of ADCs, TF-positive A431 and HPAF-II cells were plated in 384-well plates (Greiner Bio-One, Monroe, NC, USA) at 4×10^3 cells per well in 40 μL of media. Anti-TF antibodies conjugated to MC-vc-PAB-MMAE were serially diluted starting at 5 nM. Plates were incubated for 3 to 4 days, followed by lysis in CellTiter-Glo (CTG) assay reagent (Promega, Madison, WI, USA). CTG luminescence was measured on an Envision plate reader and the mean and standard deviation of 4 replicates were graphed in Prism.
To evaluate ADC cytotoxicity, A431 cells were plated in 384-well plates (Greiner Bio-One). Anti-TF antibodies conjugated to MC-vc-PAB-MMAE were serially diluted as shown. The TF-specific ADCs were added to A431 cells, with either a 72 h incubation or a 4 h incubation followed by removal of excess ADC and culture for another 68 h. A431 cells were lysed in CTG assay reagent after treatment. CTG luminescence was measured and the mean and standard deviation of 4 replicates graphed in Prism.

[7] = target: T1, human TF (TF-positive MDA-MB-231 cells); assay: FVIIa competition assay (FVII-Fc Alexa488) on MDA-MB-231 cells; format: binding; conditions: highest concentration of antibody; Example 26
Protocol: To evaluate competition between FVIJa and the human antibodies against TF, TF-positive MIDA-MB-231 cells (ATCC, Manassas, VA, USA) were first incubated for 1 hr on ice with a titration of the human antibodies against TF. Subsequently, a final concentration of 20 nM of FVII-Fc conjugated to Alexa488 was added to the antibody cell mixture. After another 1 hr incubation on ice, cells were washed, stained with a viability dye, and analyzed by flow cytometry. The Alexa488 fluorescence data from viable cells was summarized using median fluorescence intensity.
Subsequently, FVII-Fc conjugated to Alexa488 was added to the antibody-cell mixture at a final concentration of 20 nM. After another 1 hr incubation on ice, cells were washed, stained with a viability dye, and analyzed by flow cytometry. The Alexa488 fluorescence data from viable cells was summarized using median fluorescence intensity (MFI).

T1 sequence (P13726 33-295): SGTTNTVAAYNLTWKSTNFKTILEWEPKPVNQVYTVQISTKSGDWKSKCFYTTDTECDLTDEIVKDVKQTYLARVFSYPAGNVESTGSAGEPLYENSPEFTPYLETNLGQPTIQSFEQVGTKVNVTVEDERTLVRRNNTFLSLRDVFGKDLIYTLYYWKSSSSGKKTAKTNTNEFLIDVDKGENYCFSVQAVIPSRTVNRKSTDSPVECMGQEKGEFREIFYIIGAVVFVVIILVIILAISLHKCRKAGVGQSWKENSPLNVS
T2 sequence (P13726 33-295): as above

TF-011
% 39A binding [1]: reduced
ETP [2]: 792 nM·min
ETP [3]: 1714 nM·min
% 25A3 binding [4]: did not reduce
inhibited FX conversion by [5]: 57-59%
IC50 ([6]; 4 hr, followed by washout, FIG. 20B): 170 pM
IC50 ([6]; 4 hr, followed by washout, FIG. 21A): 90 pM
IC50 ([6]; Continuous treatment, FIG. 20A): 50 pM
competition with FVII [7]: effectively competed with FVII
